Key:
[1] = tested on: Mutant 1 plants; test: Cross-resistance testing (glasshouse dose response), Mutant 1; format: in vivo, Zea mays; conditions: pre-emergence spray, assessed after four weeks growth
Description: (§1) The seeds used in this screen were populations of mixed tolerant and sensitive seed, segregating 1:1, derived from each of the heterogygous, tolerant mutants crossed with homozygous, sensitive UE95. All of the tolerant progeny are heterozygous for tolerance. Each of the mutants identified above were used except mutant 4. The controls were seed of self-pollinated UE95 which was pollinated in the same year as the tolerant lines.
(§2) One litre of compost was placed in each seed tray of dimensions 19cm x 11cm x 5cm deep and firmed down flat. Two furrows 1 cm deep were drawn in the surface of the compost in each tray and six seeds were sown in each furrow (total twelve seeds per tray). Some trays were sown with 24 seeds, in which case three furrows were made and 8 seeds sown per furrow.
(§3) In each test each tray contained either the seed of one mutant or of the UE95 control for each herbicide application rate and for the untreated control.
(§4) Five different types of ALS-inhibitor herbicides were tested on the mutants plus imazethapyr (PURSUIT) as a comparison. Four rates of each were applied; approximately 0.1x, 0.5x, 1x and 4x the estimated field rates for each herbicide. The rates are the same for mutant 3 to 10 but higher rates for chlorimuron (CLASSIC) and lower rates for chlorsulfuron (GLEAN) were applied to mutants 1 and 2.
(§5) The rates of application used in the screening tests were as follows: chlorimuron (CLASSIC) 4,20,40,160 g/Ha (mutants 1 and 2); and, 8,40,80,320 g/Ha (mutants 3 to 10); chlorsulfuron (GLEAN) 5,25,50,200 g/Ha (mutants 1 and 2); and, 1,5,10,40 g/Ha (mutants 3 to 10); imazaquin (SCEPTER) 30,150,300,1200 g/Ha; triazolopyrimidine 5,25,50,200 g/Ha; phenoxypyrimidine 10,50,100,400 g/Ha; and, imazethapyr (PURSUIT) 30,150,300,1200 g/Ha The triazolopyrimidine and phenoxypyrimidine were formulated in an adjuvant wetting agent known as JF5969 and diluted with water to make a final concentration of 10% JF5969. The remaining compounds were diluted with water only.
(§6) The spray jet and parameters were as decribed above under "SCREENING". After spraying, the seeds were covered with 0.5 litre of compost and firmed down flat (2.5cm covering) and grown under the conditions described under "SCREENING" above.
(§7) Visual assessments were made of the plants after four weeks growth. Each plant was scored on a scale of zero to 5 and the height measured from soil surface to the tallest leaf tip. The scoring scale was as follows: 0 - 0 to 10% damage (little or no herbicidal effect) 1 - 11 to 25% damage 2 - 26 to 50% damage 3 - 51 to […] 4 - 81 to 95% damage 5 - 96 to 100% damage (complete death of the plant) In carrying out these assessments, plants which were obviously of the sensitive phenotype were ignored (approximately 50% of the plants). […]

[2] = tested on: Mutant 3 plants; test: Cross-resistance testing (glasshouse dose response), Mutant 3; format: in vivo, Zea mays; conditions: pre-emergence spray, assessed after four weeks growth
Description: as §1, §2, §3, §4, §5, §6, §7

[3] = molecular target: ALS enzyme extracted from Mutant 7 (heterozygous); test: ALS enzyme assay, heterozygous Mutant 7; format: biochemical, Zea mays; conditions: for IC50: ALS of heterozygous Mutant 7, read-out: ID50% (the source's name); for resistance group, Enzyme Assay: Mutant 7, groups Strong, Intermediate, Weak, Zero; for Fold Increase: fold increase in resistance vs wild type, heterozygous Mutant 7, 30 min
Method: Seeds of generation M₁BC₁ M₁BC₂ of the nine mutants were sprayed pre-emergence with the herbicide imazethapyr (PURSUIT) (Trade Mark) at a rate of 250 g/ha and grown in a growth chamber (16 hour day, 27°C; 8 hour night, 17°C). Plants were harvested after 11 days.
Four grams of leaf material were harvested from just above the first leaf axis and ground in a mortar and pestle in 20ml of a solution containing 40mM Tricine (Trade Mark), 10mM EDTA, 5mM pyruvate, 80 »M flavin adenine dinucleotide (FAD), 1mM dithiothreitol (DTT), pH 8, plus 0.8g Polyclar AT. The homogenate was pressed through four layers of muslin and centrifuged at 30,000g for 20 minutes.
The supernatant was brought to 65% saturation with ammonium sulphate, left to precipitate for 30 minutes and then centrifuged at 30.000g for 20 minutes. The pellet was resuspended in 2.5ml of 40mM Tricine, 10mM EDTA, 5mM pyruvate, 80»M FAD, 25% (v/v) glycerol, 1mM DTT, pH 8, and desalted into 3.5ml of 40mM Tricine, 10mM EDTA, 25% (v/v) glycerol, 1mM DTT, pH 8.
One hundred microlitres of the enzyme extract was used for each assay. Final reagent concentrations were: 120mM Tricine, 50mM pyruvate, 10mM MgCl₂, […], 93»M thiamine pyrophosphate (TPP), pH 8, in the presence or absence of a herbicide of interest, in a volume of 750 »l. Incubations were carried out at 37°C for 30 minutes. Reactions were stopped with 250»l of 1.84M sulphuric acid, and decarboxylation of the acetolactate carried out at 37°C for 75 minutes, or at 60°C for 30 minutes. Assay blanks had sulphuric acid added prior to the enzyme extract. To the samples and blanks 650»l of α-naphthol in 2.73M NaOH/0.16%(w/v) creatine were added followed by incubation at 37°C for 30 minutes. After centrifugation at 30,000g the optical density of the supernatant was read at 540nm.
The assay procedure described was carried out on ALS enzyme extracted from each of the nine mutants for the following herbicides: imazethapyr (PURSUIT) imazapyr (ARSENAL) imazaquin (SCEPTER) chlorsulfuron (GLEAN) chlorimuron (CLASSIC) […] (HARMONY) The enzyme activity graphs are given as Figures 3 to 8. In addition, homozygous lines of mutants 1 and 2 which were selected from generation M₁BC₁S₂, were also tested against the same group of herbicides and against representatives of the triazolopyrimidines and phenoxypyrimidines. The chemical structures of these herbicides are shown in Figure 2 of the accompanying drawings.
From the enzyme assay data it is possible to derive, as a measure of the degree of inhibition the factor ID50% for each mutant and for each herbicide. This factor is indicative of the herbicide concentration which gives 50% inhibition of the ALS activity in comparison with the wild-type control. It is also possible to derive the fold increase in resistance.

| Compound | resistance group, Dose Response [1] | resistance group, Dose Response [2] | IC50 [3] | resistance group, Enzyme Assay [3] | Fold Increase [3] |
| --- | --- | --- | --- | --- | --- |
| COc1cc(Cl)nc(NC(=O)NS(=O)(=O)c2ccccc2C(=O)O)n1 [Chlorimuron, chlorimuron] | Zero | Weak | 5 nM | Weak | 1 |
| COc1nc(C)nc(NC(=O)NS(=O)(=O)c2ccccc2Cl)n1 [Chlorsulfuron, chlorsulfuron] | Zero | Intermediate | 8 nM | Zero | 1 |
| CC(C)C1(C)N=C(c2nc3ccccc3cc2C(=O)O)NC1=O (centres unmarked) [Imazaquin, imazaquin] | Strong | Weak | 1000 nM | Weak | 2 |
| CCc1cnc(C2=NC(=O)C(C)(C(C)C)N2)c(C(=O)O)c1 (centres unmarked) [Imazethapyr, 5-ethyl-2-(5-iso-propyl-5-methyl-4-oxo-2-imidazolin-2-yl) nicotinic acid] | Strong | Weak | 4000 nM | Weak | 3 |

Source: patent publication EP0472573B1, “HERBICIDE RESISTANT MAIZE” (ZENECA LIMITED, priority 1989, dated 1990)
